One series addresses α1-adrenoceptor. The series can be described thus: Competitive radioligand-binding assay, [3H]prazosin. Also on record: species or system rat. As for the experimental part: (§1) 10 mM stock solutions of test compounds were prepared in DMSO. Serial dilutions of compounds were prepared in 96-well microplate in assay buffers using an automated pipetting system epMotion 5070 (Eppendorf, Poland). Each compound was tested in 6 concentrations of 1.0E-05 to 1.0E-10 M (final concentration).
(§2) Affinity towards α1- and α2-adrenoceptors was evaluated using the competitive radioligand-binding assay. Experiments were conducted in the rat cerebral cortex. Radioligand [3H]prazosin (84,2 Ci/mmol, α1-adrenoceptor, PerkinElmer, Poland, NET823001MC) and [3H]clonidine (70.5 Ci/mmol, α2-adrenoceptor, PerkinElmer, Poland, NET613250UC) were used. The membrane preparation and the assay procedure were carried out accordingly as previously published. Radioactivity was counted on the MicroBeta2 scintillation counter (PerkinElmer, Poland). Data were fitted to a one-site curve-fitting equation with Prism 8 (GraphPad Software, USA), and Ki values were estimated from the Cheng–Prusoff equation.

In another series the target is T1, α2-adrenoceptor (Rattus norvegicus, UniProt P22909).
T1 sequence (P22909 1-465): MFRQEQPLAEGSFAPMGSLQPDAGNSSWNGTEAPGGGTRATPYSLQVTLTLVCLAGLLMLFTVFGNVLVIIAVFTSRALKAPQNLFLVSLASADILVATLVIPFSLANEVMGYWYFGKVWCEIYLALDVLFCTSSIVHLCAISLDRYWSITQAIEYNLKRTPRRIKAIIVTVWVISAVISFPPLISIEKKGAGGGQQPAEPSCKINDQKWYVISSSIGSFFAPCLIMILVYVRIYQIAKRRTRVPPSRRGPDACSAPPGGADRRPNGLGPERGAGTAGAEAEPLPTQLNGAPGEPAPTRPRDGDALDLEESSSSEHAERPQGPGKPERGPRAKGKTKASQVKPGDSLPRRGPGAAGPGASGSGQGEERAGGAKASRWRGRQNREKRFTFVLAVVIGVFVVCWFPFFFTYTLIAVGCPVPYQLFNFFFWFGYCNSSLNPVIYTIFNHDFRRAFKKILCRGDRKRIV
Briefly: Competitive radioligand-binding assay, [3H]clonidine. To be noted: for CPM: ADRA2, experiments 1-3, duplicates; for Affinity towards α2-adrenoceptors: summary table. As for the experimental part:
as §1, §2

The conditions of series [1]: 5 mg/kg b.w., i.p.; cited from earlier work.
The conditions of series [2]: 5 mg/kg b.w., i.p.; cited from earlier work. The source holds these as a separate data set.
The target in another series is T2, α2B-adrenoceptor (Homo sapiens, UniProt P18089).
T2 sequence (P18089 1-450): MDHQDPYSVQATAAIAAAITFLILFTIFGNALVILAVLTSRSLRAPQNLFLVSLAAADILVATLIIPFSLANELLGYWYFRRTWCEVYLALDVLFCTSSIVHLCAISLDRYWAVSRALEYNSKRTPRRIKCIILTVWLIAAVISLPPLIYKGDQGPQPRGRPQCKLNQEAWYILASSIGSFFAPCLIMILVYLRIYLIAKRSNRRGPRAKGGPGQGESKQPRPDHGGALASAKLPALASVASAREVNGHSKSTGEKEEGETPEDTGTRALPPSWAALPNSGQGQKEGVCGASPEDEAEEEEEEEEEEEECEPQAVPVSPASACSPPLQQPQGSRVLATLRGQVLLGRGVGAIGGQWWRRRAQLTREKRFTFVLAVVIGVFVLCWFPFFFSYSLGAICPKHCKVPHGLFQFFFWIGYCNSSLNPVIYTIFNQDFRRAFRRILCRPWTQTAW
Briefly: Intrinsic activity, AequoScreen aequorin calcium mobilization. In kind it is cell-based. As for the experimental part:
The intrinsic activity at α2B-adrenoceptor was evaluated by luminescence detection of calcium mobilization using the recombinant expressed jellyfish photoprotein, aequorin.
Measurements were performed with the α2B-adrenergic AequoScreen cell line (PekinElmer cat. no. ES-031-AF). Cell density, in 96-well format measurements, was 5000 cells per well. […] Compound concentration series (50 μL/well) were diluted in 0.1% BSA (Intergen, cat. no. 3440–75) containing assay buffer (D-MEM/F-12, Invitrogen cat. no. 11039) and prepared in white ½ Area Plate—96-well microplates (PerkinElmer, cat. no. 6005560). The cell suspension was dispersed on the ligands using POLARstar optima reader injectors (BMG Labtech, Germany).
The concentration and dilution series having four replicates were prepared as instructed in the AequoScreen Starter Kit Manual. Cells were injected into wells with standard agonist or tested compounds using the POLARstar optima reader (BMG Labtech, Germany), and emitted light was recorded for 20 s. For the antagonist assay, cells were injected (50 μL) into the assay plate with antagonists (50 μL).

Series [3] is described as follows: Blood pressure of anaesthetized normotensive rats. It counts as in vivo, rat. As to conditions: thiopental-anaesthetized rats. On the procedure: Eighteen normotensive rats were anaesthetized with thiopental (70 mg/kg) by ip injection. The left carotid artery was cannulated with tubing filled with heparin solution in saline to facilitate pressure measurements using Apparatus PowerLab 4/35 (ADInstruments, Australia). Blood pressure was measured: before ip administration of 4-OH-Guanabenz at the doses of 2 or 5 or 10 mg/kg b.w. or water – time 0 min (control pressure) and continuously during the next 60 min.

Setting [4] is: [3H] prazosin, rat cerebral cortex, mean ± SEM, n = 3, read-out: Ki.

Consider two molecules from article PMC10539439 (Pharmacological Reports, 2023).

SMILES strings stand for the structures. Values joined by “and” are separate entries in the source; they are usually repeats but may differ in a detail not shown here. Identical values can stand only once. Like-named read-outs stand apart in the source and are kept apart here.

With `N=C(N)N/N=C/c1c(Cl)cccc1Cl` [Guanabenz], the inhibitory constant (Ki) on α1-adrenoceptor (ADRA1, experiment 1, 2, 3, read-out: Ki, single experiments) was 259 nM and 250 nM and 251 nM; at α1-adrenoceptor (setting [4]) it was 253 nM. Moreover, the “Affinity towards α1-adrenoceptors” value with α1-adrenoceptor (summary table) is given as “+”. Further, the CPM on α2-adrenoceptor (log of molar concentration -6) is 89 CPM and 117 CPM and 99 CPM and 116 CPM and 125 CPM and 115 CPM; at α2-adrenoceptor (log of molar concentration -7), 120 CPM and 135 CPM and 148 CPM and 196 CPM and 133 CPM; on α2-adrenoceptor (log of molar concentration -8), 152 CPM and 165 CPM and 205 CPM and 265 CPM and 170 CPM; on α2-adrenoceptor (log of molar concentration -10), 320 CPM and 325 CPM and 437 CPM and 458 CPM and 265 CPM and 270 CPM. For the same molecule, the “Affinity towards α2-adrenoceptors” value at α2-adrenoceptor is listed as “+”. The “Body weight of obese animals” value in series [1] was “↓ [17]”. Moreover, in series [2], the Core temperature entry was “↓ [17]”.
As to `Cl.N=C(N)NN=Cc1c(Cl)cc(O)cc1Cl` [4-OH-Guanabenz, 2-[(2,6-Dichloro-4-hydroxyphenyl)methylene]hydrazinecarboximidamide Hydrochloride], the Ki on α1-adrenoceptor (setting [4]) stood at 3860 ± 1010 nM. Further, the “affinity toward α2-adrenoreceptor (in words)” value at α2-adrenoceptor is reported as “high affinity”. For the same molecule, the CPM on α2-adrenoceptor (log of molar concentration -5) was 78 CPM and 116 CPM and 96 CPM and 117 CPM and 113 CPM and 111 CPM; on α2-adrenoceptor (log of molar concentration -6) it was 132 CPM and 157 CPM and 112 CPM and 131 CPM and 141 CPM; at α2-adrenoceptor (log of molar concentration -7) it was 198 CPM and 156 CPM and 131 CPM and 190 CPM and 205 CPM; on α2-adrenoceptor (log of molar concentration -8), 314 CPM and 316 CPM and 394 CPM and 302 CPM and 300 CPM; at α2-adrenoceptor (log of molar concentration -9) it was 420 CPM and 340 CPM and 383 CPM and 296 CPM and 320 CPM and 437 CPM; on α2-adrenoceptor (log of molar concentration -10), 404 CPM and 380 CPM and 358 CPM and 403 CPM and 400 CPM and 370 CPM. In addition, the “Affinity towards α2-adrenoceptors” value on α2-adrenoceptor is reported as “+”. Besides, the half-maximal effective concentration (EC50) on α2B-adrenoceptor was 330 nM. Also, the “Intrinsic activity at α2B-adrenoceptor (in words)” value on α2B-adrenoceptor was “antagonist activity”. For the same molecule, the “effect on diastolic pressure (in words)” value in series [3] (10 mg/kg b.w., 10th minute after administration) is reported as “short-term increase”. Further, the “effect on blood pressure (in words)” value in series [3] (single dose 2 or 5 mg/kg b.w., vs water) is on record as “not significantly different”.
